Results as given in patent US9150566B2, “2-(1,2,3-triazol-2-yl)benzamide and 3-(1,2,3-triazol-2-YL)picolinamide derivatives as orexin receptor antagonists” (ACTELION PHARMACEUTICALS LTD., priority 2011, dated 2015).
Read-outs that look alike come from different tables or passages of the source.

Key:
[1] = target: human orexin-1 receptor (Homo sapiens (Human), UniProt O43613); assay: In vitro intracellular calcium measurements (FLIPR), antagonistic activity on orexin-1 receptor; type: cell-based; settings: read-out: IC50 OX1
Sequence of human orexin-1 receptor (O43613 whole entry): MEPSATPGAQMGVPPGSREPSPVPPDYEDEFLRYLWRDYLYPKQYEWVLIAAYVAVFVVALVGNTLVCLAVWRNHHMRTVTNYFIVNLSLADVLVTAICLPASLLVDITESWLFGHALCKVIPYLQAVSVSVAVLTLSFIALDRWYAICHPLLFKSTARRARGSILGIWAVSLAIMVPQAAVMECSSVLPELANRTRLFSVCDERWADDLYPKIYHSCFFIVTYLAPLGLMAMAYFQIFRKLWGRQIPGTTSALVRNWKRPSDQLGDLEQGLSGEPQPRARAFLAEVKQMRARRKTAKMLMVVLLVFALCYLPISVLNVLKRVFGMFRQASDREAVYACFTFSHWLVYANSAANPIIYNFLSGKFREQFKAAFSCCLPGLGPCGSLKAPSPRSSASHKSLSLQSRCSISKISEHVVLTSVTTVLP
How it was run: (§1)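 Recombinant CHO lines bearing human OX1 or OX2 receptors received test antagonist 120 min before agonist addition.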

[2] = target: human orexin-2 receptor (Homo sapiens (Human), UniProt O43614); assay: In vitro intracellular calcium measurements (FLIPR), antagonistic activity on orexin-2 receptor; type: cell-based; settings: read-out: IC50 OX2
Sequence of human orexin-2 receptor (O43614 whole entry): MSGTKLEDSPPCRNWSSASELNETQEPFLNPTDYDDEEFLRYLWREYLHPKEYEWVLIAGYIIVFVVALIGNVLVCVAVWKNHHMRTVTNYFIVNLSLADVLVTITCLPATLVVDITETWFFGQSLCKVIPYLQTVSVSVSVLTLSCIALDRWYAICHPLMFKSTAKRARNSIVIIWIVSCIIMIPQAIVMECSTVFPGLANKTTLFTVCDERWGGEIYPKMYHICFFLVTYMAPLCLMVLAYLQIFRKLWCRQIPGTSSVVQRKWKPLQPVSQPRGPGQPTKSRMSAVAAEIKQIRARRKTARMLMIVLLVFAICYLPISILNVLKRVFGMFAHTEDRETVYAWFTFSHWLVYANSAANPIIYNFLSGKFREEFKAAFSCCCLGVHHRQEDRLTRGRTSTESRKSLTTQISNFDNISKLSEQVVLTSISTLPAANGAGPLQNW
How it was run: as §1

[3] = target: CYP3A4 (Homo sapiens (Human), UniProt P08684); assay: CYP3A4 inhibition assay (human liver microsomes, testosterone 6β-hydroxylation); settings: read-out: CYP3A4 IC50, 40 μM testosterone
Sequence of CYP3A4 (P08684 whole entry): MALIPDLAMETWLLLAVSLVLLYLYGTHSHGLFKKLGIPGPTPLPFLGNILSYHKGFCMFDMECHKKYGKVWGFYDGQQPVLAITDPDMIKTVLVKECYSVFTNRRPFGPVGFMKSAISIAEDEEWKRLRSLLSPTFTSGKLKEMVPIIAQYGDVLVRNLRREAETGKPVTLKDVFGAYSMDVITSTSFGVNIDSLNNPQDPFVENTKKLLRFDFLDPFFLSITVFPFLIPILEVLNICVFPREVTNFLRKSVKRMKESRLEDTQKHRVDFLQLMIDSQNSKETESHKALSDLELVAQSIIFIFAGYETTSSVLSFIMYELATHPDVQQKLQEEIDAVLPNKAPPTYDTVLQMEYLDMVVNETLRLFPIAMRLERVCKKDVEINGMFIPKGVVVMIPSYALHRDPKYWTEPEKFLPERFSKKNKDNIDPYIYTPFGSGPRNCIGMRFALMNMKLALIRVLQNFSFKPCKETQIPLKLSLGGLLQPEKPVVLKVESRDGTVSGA
Method: The CYP3A4 inhibition assay was performed using human liver microsomes and testosterone 6β-hydroxylation as a P450 isoform-specific marker. In a total volume of 150 μL, ^14C-testosterone at a final concentration of 40 μM in a 100 mM phosphate buffer (pH 7.4) was incubated in a 96-well plate with 0.3 mg/mL of human liver microsomes in an Eppendorf thermomixer at 37° C. and 400 rpm. […] The reaction was initiated by addition of 15 μL of the NADPH-regenerating system containing the glucose-6-phosphate dehydrogenase and terminated after 7 min with a 75 μL-aliquot of methanol. After centrifugation at 465 g and 4° C. for 20 min, a 50 μL-aliquot of the supernatant was submitted to HPLC according to the method described below. The total concentration of DMSO in the assay including controls without inhibitor was 1%.
Nicardipine was run in parallel as a reference inhibitor of CYP3A4 activity at final concentrations of 0, 0.1, 0.5, 1.0, 5.0, 10, 25, and 50 μM. Stock solutions thereof were prepared in DMSO.
The chromatographic separation of testosterone and 6β-hydroxytestosterone was achieved on a Phenomenex Luna C18(2) column (5 μm, 2.0×10 mm) at RT with a flow rate of 0.6 mL/min. Mobile phases consisted of 1% aqueous formic acid (phase A) and methanol (phase B) using a gradient method with 0.9 min total run time.
The quantification of 6β-hydroxytestosterone was carried out using a quadrupole mass spectrometer equipped with an ionspray interface operating in positive ion mode. The parameters of the mass detector were set as follows: capillary voltage 5 kV, auxiliary gas 40 psi, collision gas 3 mTorr, and transfer capillary temperature 420° C.

[4] = CHO cells expressing human orexin-2 receptor, FLIPR, 3 nM orexin-A agonist, 120 min antagonist incubation, geometric mean if determined several times
[5] = CHO cells expressing human orexin-1 receptor, FLIPR, 3 nM orexin-A agonist, 120 min antagonist incubation, geometric mean if determined several times

Compound | IC50 [2, 4] | IC50 [3] | IC50 [1, 5] | IC50 [1] | IC50 [2]
Cc1ccc(C(=O)N2CCOC[C@H]2Cc2cc(F)cc(-n3nccn3)c2)c(-n2nccn2)c1 [Example 146, [(R)-3-(3-Fluoro-5-[1,2,3]triazol-2-yl-benzyl)-morpholin-4-yl]-(4-methyl-2-[1,2,3]triazol-2-yl-phenyl)-methanone] | 282 nM | 40000 nM |  | 3 nM | 
Cc1ccc(C(=O)N2C[C@@H](C)OC[C@H]2Cc2cc(-c3cccnn3)ccc2F)c(-n2nccn2)c1 [Example 165, [(2R,5R)-5-(2-Fluoro-5-pyridazin-3-yl-benzyl)-2-methyl-morpholin-4-yl]-(4-methyl-2-[1,2,3]triazol-2-yl-phenyl)-methanone] | 1300 nM | 20000 nM | 14 nM |  | 
Cc1ccc(C(=O)N2CCOC[C@H]2Cc2cc(-c3cccnn3)ccc2F)c(-n2nccn2)c1 [Example 166, [(R)-3-(2-Fluoro-5-pyridazin-3-yl-benzyl)-morpholin-4-yl]-(4-methyl-2-[1,2,3]triazol-2-yl-phenyl)-methanone] | 1400 nM | 19000 nM | 13 nM |  | 
Cc1ccc(C(=O)N2CCOC[C@H]2Cc2cc(-n3nccn3)ccc2Cl)c(-n2nccn2)c1C [Example 169, [(R)-3-(2-Chloro-5-[1,2,3]triazol-2-yl-benzyl)-morpholin-4-yl]-(3,4-dimethyl-2-[1,2,3]triazol-2-yl-phenyl)-methanone] | 2440 nM | 29000 nM | 5 nM |  | 
O=C(c1ccc(Cl)cc1-n1nccn1)N1CCOC[C@H]1Cc1cc(-n2nccn2)ccc1Cl [Example 170, [(R)-3-(2-Chloro-5-[1,2,3]triazol-2-yl-benzyl)-morpholin-4-yl]-(4-chloro-2-[1,2,3]triazol-2-yl-phenyl)-methanone] | 451 nM | 9800 nM | 7 nM |  | 
C[C@@H]1CN(C(=O)c2cccc(Cl)c2-n2nccn2)[C@H](Cc2cccc(-n3nccn3)c2)CO1 [Example 172, (3-Chloro-2-[1,2,3]triazol-2-yl-phenyl)-[(2R,5R)-2-methyl-5-(3-[1,2,3]triazol-2-yl-benzyl)-morpholin-4-yl]-methanone] | 93 nM | 23000 nM | 3 nM |  | 
C[C@@H]1CN(C(=O)c2cccc(Cl)c2-n2nccn2)[C@H](Cc2cc(-n3nccn3)ccc2F)CO1 [Example 173, (3-Chloro-2-[1,2,3]triazol-2-yl-phenyl)-[(2R,5R)-5-(2-fluoro-5-[1,2,3]triazol-2-yl-benzyl)-2-methyl-morpholin-4-yl]-methanone] | 455 nM | 21000 nM | 16 nM |  | 
Cc1ccc(-n2nccn2)c(C(=O)N2CCOC[C@H]2Cc2cc(-c3ncon3)ccc2F)c1 [Example 174, [(R)-3-(2-Fluoro-5-[1,2,4]oxadiazol-3-yl-benzyl)-morpholin-4-yl]-(5-methyl-2-[1,2,3]triazol-2-yl-phenyl)-methanone] | 642 nM | 50000 nM | 8 nM |  | 
Cc1ccc(C(=O)N2CCOC[C@H]2Cc2cc(-c3ncon3)ccc2F)c(-n2nccn2)c1 [Example 175, [(R)-3-(2-Fluoro-5-[1,2,4]oxadiazol-3-yl-benzyl)-morpholin-4-yl]-(4-methyl-2-[1,2,3]triazol-2-yl-phenyl)-methanone] | 359 nM | 35000 nM | 3 nM |  | 
Cc1cc(C(=O)N2CCOC[C@H]2Cc2cc(-c3ncon3)ccc2F)c(-n2nccn2)cc1C [Example 179, (4,5-Dimethyl-2-[1,2,3]triazol-2-yl-phenyl)-[(R)-3-(2-fluoro-5-[1,2,4]oxadiazol-3-yl-benzyl)-morpholin-4-yl]-methanone] | 34 nM | 29000 nM | 2 nM |  | 
Cc1ccc(C(=O)N2CCOC[C@H]2Cc2cccc(-n3nccn3)c2F)c(-n2nccn2)c1 [Example 183, [(R)-3-(2-Fluoro-3-[1,2,3]triazol-2-yl-benzyl)-morpholin-4-yl]-(4-methyl-2-[1,2,3]triazol-2-yl-phenyl)-methanone] |  | > 50000 nM |  | 15 nM | 2130 nM
C[C@@H]1CN(C(=O)c2cc(Cl)ccc2-n2nccn2)[C@H](Cc2cccc(-n3nccn3)c2)CO1 [Example 184, (5-Chloro-2-[1,2,3]triazol-2-yl-phenyl)-[(2R,5R)-2-methyl-5-(3-[1,2,3]triazol-2-yl-benzyl)-morpholin-4-yl]-methanone] | 96 nM | 19000 nM | 2 nM |  | 
C[C@@H]1CN(C(=O)c2ccc(Cl)cc2-n2nccn2)[C@H](Cc2cccc(-n3nccn3)c2)CO1 [Example 185, (4-Chloro-2-[1,2,3]triazol-2-yl-phenyl)-[(2R,5R)-2-methyl-5-(3-[1,2,3]triazol-2-yl-benzyl)-morpholin-4-yl]-methanone] | 39 nM | 20000 nM | 2 nM |  | 
C[C@@H]1CN(C(=O)c2cc(Cl)ccc2-n2nccn2)[C@H](Cc2cc(-n3nccn3)ccc2F)CO1 [Example 186, (5-Chloro-2-[1,2,3]triazol-2-yl-phenyl)-[(2R,5R)-5-(2-fluoro-5-[1,2,3]triazol-2-yl-benzyl)-2-methyl-morpholin-4-yl]-methanone] | 181 nM | 19000 nM | 11 nM |  | 
C[C@@H]1CN(C(=O)c2ccc(Cl)cc2-n2nccn2)[C@H](Cc2cc(-n3nccn3)ccc2F)CO1 [Example 187, (4-Chloro-2-[1,2,3]triazol-2-yl-phenyl)-[(2R,5R)-5-(2-fluoro-5-[1,2,3]triazol-2-yl-benzyl)-2-methyl-morpholin-4-yl]-methanone] | 58 nM | 14000 nM | 6 nM |  | 

Further lines, with some results ahead:

IC50 [2, 4] | IC50 [3] | IC50 [1, 5] | Compound | IC50 [1] | IC50 [2]
263 nM | 31000 nM | 4 nM | Cc1ccc(C(=O)N2C[C@@H](C)OC[C@H]2Cc2cc(-c3ncccn3)ccc2F)c(-n2nccn2)c1 [Example 149, [(2R,5R)-5-(2-Fluoro-5-pyrimidin-2-yl-benzyl)-2-methyl-morpholin-4-yl]-(4-methyl-2-[1,2,3]triazol-2-yl-phenyl)-methanone] |  | 
506 nM | 32000 nM | 9 nM | Cc1cccc(C(=O)N2C[C@@H](C)OC[C@H]2Cc2cc(-c3ncccn3)ccc2F)c1-n1nccn1 [Example 150, [(2R,5R)-5-(2-Fluoro-5-pyrimidin-2-yl-benzyl)-2-methyl-morpholin-4-yl]-(3-methyl-2-[1,2,3]triazol-2-yl-phenyl)-methanone] |  | 
129 nM | 15000 nM | 4 nM | C[C@@H]1CN(C(=O)c2cc(Cl)ccc2-n2nccn2)[C@H](Cc2cc(-c3ncccn3)ccc2F)CO1 [Example 152, (5-Chloro-2-[1,2,3]triazol-2-yl-phenyl)-[(2R,5R)-5-(2-fluoro-5-pyrimidin-2-yl-benzyl)-2-methyl-morpholin-4-yl]-methanone] |  | 
447 nM | 24000 nM | 13 nM | C[C@@H]1CN(C(=O)c2cccc(Cl)c2-n2nccn2)[C@H](Cc2cc(-c3ncccn3)ccc2F)CO1 [Example 154, (3-Chloro-2-[1,2,3]triazol-2-yl-phenyl)-[(2R,5R)-5-(2-fluoro-5-pyrimidin-2-yl-benzyl)-2-methyl-morpholin-4-yl]-methanone] |  | 
490 nM | 17000 nM | 6 nM | O=C(c1cc(Cl)ccc1-n1nccn1)N1CCOC[C@H]1Cc1cc(-c2ncccn2)ccc1F [Example 159, (5-Chloro-2-[1,2,3]triazol-2-yl-phenyl)-[(R)-3-(2-fluoro-5-pyrimidin-2-yl-benzyl)-morpholin-4-yl]-methanone] |  | 
655 nM | 33000 nM | 16 nM | O=C(c1cccc(Cl)c1-n1nccn1)N1CCOC[C@H]1Cc1cc(-c2ncccn2)ccc1F [Example 161, (3-Chloro-2-[1,2,3]triazol-2-yl-phenyl)-[(R)-3-(2-fluoro-5-pyrimidin-2-yl-benzyl)-morpholin-4-yl]-methanone] |  | 
675 nM | 13000 nM | 10 nM | O=C(c1cccc(Cl)c1-n1nccn1)N1CCOC[C@H]1Cc1cc(-n2nccn2)ccc1Cl [Example 171, [(R)-3-(2-Chloro-5-[1,2,3]triazol-2-yl-benzyl)-morpholin-4-yl]-(3-chloro-2-[1,2,3]triazol-2-yl-phenyl)-methanone] |  | 
240 nM | 22000 nM | 11 nM | O=C(c1cc(Cl)ccc1-n1nccn1)N1CCOC[C@H]1Cc1cc(-c2ncon2)ccc1F [Example 176, (5-Chloro-2-[1,2,3]triazol-2-yl-phenyl)-[(R)-3-(2-fluoro-5-[1,2,4]oxadiazol-3-yl-benzyl)-morpholin-4-yl]-methanone] |  | 
165 nM | 24000 nM | 2 nM | O=C(c1ccc(Cl)cc1-n1nccn1)N1CCOC[C@H]1Cc1cc(-c2ncon2)ccc1F [Example 178, (4-Chloro-2-[1,2,3]triazol-2-yl-phenyl)-[(R)-3-(2-fluoro-5-[1,2,4]oxadiazol-3-yl-benzyl)-morpholin-4-yl]-methanone] |  | 
830 nM | 36000 nM | 19 nM | O=C(c1cccc(Cl)c1-n1nccn1)N1CCOC[C@H]1Cc1cc(-c2ncon2)ccc1F [Example 180, (3-Chloro-2-[1,2,3]triazol-2-yl-phenyl)-[(R)-3-(2-fluoro-5-[1,2,4]oxadiazol-3-yl-benzyl)-morpholin-4-yl]-methanone] |  | 
1570 nM | 36000 nM | 11 nM | Cc1ccc(C(=O)N2CCOC[C@H]2Cc2cc(-c3ncon3)ccc2F)c(-n2nccn2)c1C [Example 181, (3,4-Dimethyl-2-[1,2,3]triazol-2-yl-phenyl)-[(R)-3-(2-fluoro-5-[1,2,4]oxadiazol-3-yl-benzyl)-morpholin-4-yl]-methanone] |  | 
